From ChEMBL document CHEMBL5096205, “Lysine Covalent Antagonists of Melanoma Inhibitors of Apoptosis Protein” (J Med Chem, 2021)

What was measured:
[1] = biological target: E3 ubiquitin-protein ligase XIAP (Homo sapiens, UniProt P98170); assay: Antagonist activity at N-terminal His-tagged XIAP-BIR3 domain (253 to 347 residues)(unknown origin) expressed in Escherichia coli BL21 using AVPIAQKSEK-biotinylated peptide as substrate incubated for 2 hrs by DELFIA assay
[2] = biological target: Baculoviral IAP repeat-containing protein 3 (Homo sapiens, UniProt Q13489); assay: Antagonist activity at N-terminal His-tagged cIAP2-BIR3 domain (unknown origin) expressed in Escherichia coli BL21 using AVPIAQKSEK-biotinylated peptide as substrate incubated for 2 hrs by DELFIA assay
SK-MEL-28 [3] = assay: Induction of apoptosis in human SK-MEL-28 cells assessed as increase in caspase-3/7 activity at 0.1 to 10 uM in presence of 0.1 ng/mL TNFlpha by IncuCyteS3 caspase-3/7 fluorescence-based apoptosis assay; type: functional, cell-based; details: dose 0.1-10 µM, time <= 48.0 hrs, TDE = time-dependent effect
SK-MEL-28 [4] = assay: Induction of apoptosis in human SK-MEL-28 cells assessed as increase in caspase-3/7 activity measured up to 48 hrs in presence of 0.1 ng/mL TNFlpha by IncuCyteS3 caspase-3/7 fluorescence-based apoptosis assay; type: functional, cell-based; details: dose 0.1-10 µM, DDE = dose-dependent effect
[5] = biological target: T1, Baculoviral IAP repeat-containing protein 7 (Homo sapiens, UniProt Q96CA5); assay: Antagonist activity at N-terminal His-tagged wild type ML-IAP BIR domain (63 to 179 residues) (unknown origin) expressed in Escherichia coli BL21 using AVPIAQKSEK-biotinylated peptide as substrate incubated for 2 hrs by DELFIA assay
T1 sequence (Q96CA5 whole entry): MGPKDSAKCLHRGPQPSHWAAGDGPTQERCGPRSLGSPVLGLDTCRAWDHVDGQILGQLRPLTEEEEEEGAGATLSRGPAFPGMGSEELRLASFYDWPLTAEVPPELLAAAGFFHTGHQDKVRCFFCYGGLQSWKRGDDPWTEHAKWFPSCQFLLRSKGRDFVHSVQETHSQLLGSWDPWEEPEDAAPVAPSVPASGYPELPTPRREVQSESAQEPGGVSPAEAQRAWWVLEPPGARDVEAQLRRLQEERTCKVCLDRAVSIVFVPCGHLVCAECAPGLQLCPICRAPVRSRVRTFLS

[6] = biological target: T2, Baculoviral IAP repeat-containing protein 7 (Homo sapiens) (UniProt Q96CA5); details: dose 20.0 µM, time 150.0 min
T2 sequence (whole entry): T1 sequence (Q96CA5 whole entry)

Homo sapiens = species: Homo sapiens; assay: Binding affinity to N-terminal His-tagged ML-IAP K135A mutant (63 to 179 residues) (unknown origin) expressed in Escherichia coli BL21 assessed as change in melting temperature at 20 uM incubated for 2 hrs followed by heating at 40 to 70 degree C for 30 mins by SYPRO orange dye based thermal shift assay; details: time 150.0 min
[7] = biological target: T1, Baculoviral IAP repeat-containing protein 7; assay: Antagonist activity at N-terminal His-tagged wild type ML-IAP BIR domain (63 to 179 residues)(unknown origin) expressed in Escherichia coli BL21 using AVPIAQKSEK-biotinylated peptide as substrate preincubated for 2 hrs with protein followed by substrate addition measured after 2 hrs by DELFIA assay
[8] = biological target: Baculoviral IAP repeat-containing protein 2 (Homo sapiens, UniProt Q13490); assay: Antagonist activity at N-terminal His-tagged cIAP1-BIR3 domain (unknown origin) expressed in Escherichia coli BL21 using AVPIAQKSEK-biotinylated peptide as substrate incubated for 2 hrs by DELFIA assay
Chain of Baculoviral IAP repeat-containing protein 2 (Q13490 whole entry, the tested form may be a part): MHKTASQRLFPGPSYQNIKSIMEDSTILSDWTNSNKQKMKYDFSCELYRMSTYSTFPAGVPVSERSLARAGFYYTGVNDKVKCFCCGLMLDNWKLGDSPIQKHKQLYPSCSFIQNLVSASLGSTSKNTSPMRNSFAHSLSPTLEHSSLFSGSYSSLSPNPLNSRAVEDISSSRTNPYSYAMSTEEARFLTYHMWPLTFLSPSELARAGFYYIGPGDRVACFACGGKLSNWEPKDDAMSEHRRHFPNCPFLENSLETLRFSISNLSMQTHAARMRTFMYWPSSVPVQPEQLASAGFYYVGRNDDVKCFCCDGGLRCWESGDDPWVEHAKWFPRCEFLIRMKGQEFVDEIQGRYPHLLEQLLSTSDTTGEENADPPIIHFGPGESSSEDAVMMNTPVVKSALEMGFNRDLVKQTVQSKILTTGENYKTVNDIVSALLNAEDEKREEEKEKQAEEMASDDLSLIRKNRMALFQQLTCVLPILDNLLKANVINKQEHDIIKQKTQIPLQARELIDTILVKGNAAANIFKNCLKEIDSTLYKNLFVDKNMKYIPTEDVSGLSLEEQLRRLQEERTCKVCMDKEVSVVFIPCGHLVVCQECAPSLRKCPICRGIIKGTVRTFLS

Chain of E3 ubiquitin-protein ligase XIAP (P98170 whole entry, the tested form may be a part): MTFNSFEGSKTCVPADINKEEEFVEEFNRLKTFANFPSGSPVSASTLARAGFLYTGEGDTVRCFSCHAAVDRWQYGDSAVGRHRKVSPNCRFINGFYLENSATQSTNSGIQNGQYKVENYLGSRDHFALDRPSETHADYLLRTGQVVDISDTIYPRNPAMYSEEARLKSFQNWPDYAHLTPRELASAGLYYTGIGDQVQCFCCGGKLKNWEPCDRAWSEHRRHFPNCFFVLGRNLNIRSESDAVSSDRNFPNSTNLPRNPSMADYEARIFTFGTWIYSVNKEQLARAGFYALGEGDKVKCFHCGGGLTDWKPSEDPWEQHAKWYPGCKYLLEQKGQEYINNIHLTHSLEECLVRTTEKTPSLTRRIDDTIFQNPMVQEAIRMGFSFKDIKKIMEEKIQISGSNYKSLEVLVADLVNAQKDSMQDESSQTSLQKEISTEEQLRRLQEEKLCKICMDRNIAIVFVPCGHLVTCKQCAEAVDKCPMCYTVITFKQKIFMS
Chain of Baculoviral IAP repeat-containing protein 3 (Q13489 whole entry, the tested form may be a part): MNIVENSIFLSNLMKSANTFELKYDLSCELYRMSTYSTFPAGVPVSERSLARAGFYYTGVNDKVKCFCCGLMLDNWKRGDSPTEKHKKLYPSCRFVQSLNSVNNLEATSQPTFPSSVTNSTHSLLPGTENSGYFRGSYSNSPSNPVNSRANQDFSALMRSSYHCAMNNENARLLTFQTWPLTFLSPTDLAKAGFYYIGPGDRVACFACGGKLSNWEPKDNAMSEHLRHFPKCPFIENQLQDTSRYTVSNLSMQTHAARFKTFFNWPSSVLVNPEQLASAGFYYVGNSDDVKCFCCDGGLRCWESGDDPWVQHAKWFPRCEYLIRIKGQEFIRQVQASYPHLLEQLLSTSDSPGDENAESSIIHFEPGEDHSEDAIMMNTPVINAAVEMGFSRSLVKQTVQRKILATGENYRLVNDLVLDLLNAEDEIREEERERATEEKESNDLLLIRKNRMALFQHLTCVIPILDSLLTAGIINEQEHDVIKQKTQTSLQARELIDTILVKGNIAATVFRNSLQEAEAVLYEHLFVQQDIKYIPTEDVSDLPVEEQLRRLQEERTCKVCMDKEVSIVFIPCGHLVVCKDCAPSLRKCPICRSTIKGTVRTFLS

For `CN[C@@H](C)C(=O)N[C@@H](CNC(=O)c1cc(S(=O)(=O)F)ccc1OC)C(=O)N1CCCC[C@H]1C(=O)N[C@@H](Cc1ccccc1)C(N)=O`, the IC50 [1] was > 2500 nM and the IC50 [2] was > 2000 nM.
In the case of `CN[C@@H](C)C(=O)N[C@H](C(=O)N1CCC[C@H]1c1nc(C(=O)c2ccc(F)cc2)cs1)C1CCCCC1` [LCL-161], the Activity (SK-MEL-28 [3]) is reported as “Tde”, the Activity (SK-MEL-28 [4]) is reported as “Dde” and the IC50 [5] is reported as 9 nM. It also gave a ΔTm [6] of 12.6 °C, a ΔTm (Homo sapiens) of 14.5 °C and an IC50 [7] of 15 nM.
For `CN[C@@H](C)C(=O)N[C@@H](CNC(=O)c1cc(S(=O)(=O)F)ccc1OC)C(=O)N1CCC[C@H]1C(=O)N[C@@H]1CCc2ccccc21`, the Activity (SK-MEL-28 [3]) was “Tde”, the Activity (SK-MEL-28 [4]) was “Dde” and the ΔTm (Homo sapiens) was 6.2 °C.
With `CN[C@@H](C)C(=O)N[C@@H](CNC(=O)c1cccc(S(=O)(=O)F)c1)C(=O)N1CCC[C@H]1C(=O)NC1Cc2ccccc2C1` the IC50 [1] was > 2500 nM, the IC50 [5] was > 1000 nM and the IC50 [2] was > 1500 nM. For the same compound, the IC50 [8] was > 1000 nM.
`CN[C@@H](C)C(=O)N[C@@H](CNC(=O)c1cc(S(=O)(=O)O)ccc1OC)C(=O)N1CCC[C@H]1C(=O)N[C@@H]1CCc2ccccc21` showed a ΔTm (Homo sapiens) of 4.7 °C.
For `CN[C@@H](C)C(=O)N[C@@H](CNC(=O)c1cc(S(=O)(=O)F)ccc1OC)C(=O)N1CCC[C@H]1C(=O)N[C@@H]1CCc2c(F)cccc21`, the IC50 [1] was > 1000 nM.
